Source: patent US20120238532A1, “TREATMENT OF HUMAN OSTEOSARCOMA” (CEDARS-SINAI MEDICAL CENTER, priority 2009, published 2012)

What was measured:
[1] = system: human OS cell lines (U2OS, G292, MG-63, HT-161, HOS, SAOS-2, and SJSA); assay: MTT assay, dose-response in human OS cell lines; format: cell-based
Procedure: (§1) 7 human OS cell lines (U2OS, G292, MG-63, HT-161, HOS, SAOS-2, and SJSA) were used in the study. Each cell line except HT-161 was obtained from the American Type Culture Collection (ATCC, Rockville, Md.). HT-161 was obtained from Dr. Emil Bogenmann (13). All cell lines were tested and authenticated prior to use according to cell line verification test recommendations by ATCC. OS cell lines were maintained in DMEM medium (Mediatech Inc., Herndon, Va.) supplemented with 10% fetal bovine serum (FBS; Atlanta Biological, Lawrenceville, Ga.) in a humidified incubator at 37° C. supplied with 5% CO2. Only the cells in exponential growth phase were used in the study.
(§2) Cell growth and survival were measured by 3-(4,5-dimethylthiazol-2-yl)-2,5-diphenyltetrazolium bromide (MTT) assay. […] After 48 hours of incubation, 10 μl of 5 mg/ml MTT solution (Sigma-Aldrich, St. Louis, Mo.) was added to each well and incubated further for 2 hours. […] For pulse-exposure experiments, MG-63 and SAOS-2 cells were seeded in 96-well plates and exposed to CuB at their ED50. After 2, 9, and 20 hours of exposure, cells were washed twice with PBS and incubated further in CuB-free media. Cell growth was checked by MTT assay at 24, 48, and 72 hours.

MG-63 cells = assay: MTT assay, MG-63 (dose-response, pulse-exposure, combination); format: cell-based, human; details: pulse-exposed at ED50 for 2, 9, and 20 hours
Procedure: as §1, §2
(§3) Calcusyn 2.0 (Biosoft, Ferguson, Mo.) was used for CI analysis.

SAOS-2 cells [2] = assay: MTT assay, SAOS-2 (dose-response, pulse-exposure, combination); format: cell-based, human; details: pulse-exposed at ED50 for 2, 9, and 20 hours
Procedure: as §1, §2, §3

SAOS-2 cells [3] = assay: Cell cycle analysis (PI, FACS), SAOS-2; format: cell-based, human
Procedure: (§4) Cells were harvested and fixed with 70% ethanol at regular time intervals. Fixed cells were stained with propidium iodide (PI) for flow cytometry analysis using BD FACScan (BD Biosciences, San Jose, Calif.). Distribution of cell cycle was analyzed by ModFit LT V2.0 software (Verity Software House, Topsham, Me.). […] After 24, 48, and 72 hours of exposure, cells were harvested and stained with PI and fluorescein isothiocyanate (FITC) using Annexin V-FITC apoptosis detection kit (BD Biosciences) according to the manufacturer's protocol. Cells were subjected to flow cytometry analysis within one hour of staining.

SAOS-2 cells [4] = assay: Annexin V-FITC apoptosis assay, SAOS-2; format: cell-based, human; details: at ED50, 72 hours of exposure
Procedure: as §4

Akt = assay: Western blotting, Akt phosphorylation; format: cell-based, human; details: MG-63 cells
Procedure: (§5) Changes in protein level by CuB were checked by Western blotting. […] After 2, 9, and 20 hours of exposure, cells were harvested and immediately lysed with RIPA buffer (Millipore—Upstate, Temecula, Calif.) supplemented with protease inhibitor cocktail (Roche, San Francisco, Calif.), 0.5 mM PMSF (Roche), and 50 mM NaF (Sigma). After 20 minutes of incubation on ice, protein concentrations were measured by Bradford assay with Bio Rad protein assay solution (Bio-Rad, Hercules, Calif.) and samples were adjusted to the same protein concentration. Samples were mixed with 2× Laemmli sample buffer (Bio-Rad) with 5% β-mercaptoethanol (Sigma) and incubated at 95° C. for 10 min to denature the protein. After brief incubation on ice, proteins were separated by SDS-PAGE, transferred to nitrocellulose membrane (Sigma), and blotted with antibodies from either Cell Signaling Technology (Danvers, Mass.) or Santa Cruz Biotechnology (Santa Cruz, Calif.). Target proteins were visualized by Supersignal West Dura Substrate (Thermo-Pierce, Rockford, Ill.). GAPDH protein was used as a loading control.

[5] = system: cyclin A and cyclin-dependent kinase inhibitor 1 (p21^WAF1); assay: Western blotting, cyclin A and p21^WAF1; format: cell-based, human; details: MG-63 and SAOS-2 cells
Procedure: as §5

[6] = Body weight and side-effects during xenograft treatment; format: in vivo, mice; details: week 1, returned to normal in subsequent weeks
Procedure: All animal experiments strictly followed the guidelines of Cedars-Sinai Medical Center and the National Institute of Health (NIH). Female nu/nu athymic nude mice (5-6 weeks old; average weight 21 g; specific pathogen-free) from Harlan Laboratories (Indianapolis, Ind.) were maintained in pathogen-free condition with sterilized chow and water. 5×10^6 cells of MG-63 cells were mixed with 200 μl of Matrigel solution (BD Biosciences) per injection, and the mixture was injected subcutaneously on the upper flanks of nude mice. After 24 hours, tumor size was measured, and any outliers were ruled out by one-way analysis of variance (ANOVA) test. […] The dose of LD-MTX was the murine equivalent of the human dose of LD-MTX. The conversion was made using dose translation formula by Reagan-Shaw et al., (15). […] Body weights were monitored every 2 days. Tumor size was measured every 2 days, and the tumor volume was calculated using the following formula: A (length)×B (width)×C (height)×0.5236 (16). The experiment was stopped at day 35, and all mice were sacrificed. The presence of metastatic spread was examined macroscopically at the time of autopsy followed by histological examination. At least two tumors from each group were snap-frozen in liquid nitrogen for Western blotting.

[7] = system: phospho-mTOR (S2448) and survivin; assay: Western blots from snap-frozen xenograft tumors; format: in vivo; details: mice treated with LD-CuB, day 35
Procedure: as §5, with “Target proteins were visualized by Supersignal West Dura Substrate (Thermo-Pierce, Rockford, Ill.). GAPDH protein was used as a loading control.” left out
All animal experiments strictly followed the guidelines of Cedars-Sinai Medical Center and the National Institute of Health (NIH). […] After 24 hours, tumor size was measured, and any outliers were ruled out by one-way analysis of variance (ANOVA) test. […] Body weights were monitored every 2 days. Tumor size was measured every 2 days, and the tumor volume was calculated using the following formula: A (length)×B (width)×C (height)×0.5236 (16). […]

CC(=O)OC(C)(C)/C=C/C(=O)[C@](C)(O)[C@H]1[C@H](O)C[C@@]2(C)[C@@H]3CC=C4[C@H](C[C@H](O)C(=O)C4(C)C)[C@]3(C)C(=O)C[C@]12C [CuB, cucurbitacin B]
cytotoxic activity in human OS cells [1]: dose- and time-dependent
cell death after pulse-exposure (MG-63 cells): longer exposure to CuB induced more cell death
cell death after pulse-exposure (SAOS-2 cells [2]): longer exposure to CuB induced more cell death
increase of G2/M phase (SAOS-2 cells [3]; 20 hours of exposure): around 3 fold
G2/M phase (SAOS-2 cells [3]; 20 hours of exposure at ED50 (control 15%)): 42%
apoptotic cells (SAOS-2 cells [4]): 96%
Akt phosphorylation at S473 (Akt): Inhibition of Akt phosphorylation at S473 was observed in MG-63 cells
protein levels of cyclin A and p21^WAF1 [5]: increased the protein levels of cyclin A and cyclin-dependent kinase inhibitor 1 (p21^WAF1) in both cells
initial weight loss ([6]; HD-CuB 1.0 mg/kg): up to 5%
initial weight loss ([6]; LD-CuB 0.5 mg/kg): up to 5%
phospho-mTOR (S2448) and survivin in tumors [7]: decreased amount of phospho-mTOR (S2448) and its downstream target survivin
